Measurements published in patent US11331314B2, “Amine substituted triazole derivatives and uses thereof” (Bayer Pharma Aktiengesellschaft, priority 2017, dated 2022).

Tests used:
human V1a receptor = human V1a receptor (Homo sapiens, UniProt P37288); experiment: Cellular in vitro assay for determining vasopressin receptor activity, V1a receptor cell line (photoprotein luminescence); format: cell-based; conditions: for IC50: CHO cell line transfected with the human V1a receptor, agonist [Arg8]-vasopressin at EC50 concentration, read-out: IC50 hV1a; for ratio IC50 hV2/hV1a: selectivity ratio of the cellular IC50 values
human V1a receptor, sequence (P37288 whole entry): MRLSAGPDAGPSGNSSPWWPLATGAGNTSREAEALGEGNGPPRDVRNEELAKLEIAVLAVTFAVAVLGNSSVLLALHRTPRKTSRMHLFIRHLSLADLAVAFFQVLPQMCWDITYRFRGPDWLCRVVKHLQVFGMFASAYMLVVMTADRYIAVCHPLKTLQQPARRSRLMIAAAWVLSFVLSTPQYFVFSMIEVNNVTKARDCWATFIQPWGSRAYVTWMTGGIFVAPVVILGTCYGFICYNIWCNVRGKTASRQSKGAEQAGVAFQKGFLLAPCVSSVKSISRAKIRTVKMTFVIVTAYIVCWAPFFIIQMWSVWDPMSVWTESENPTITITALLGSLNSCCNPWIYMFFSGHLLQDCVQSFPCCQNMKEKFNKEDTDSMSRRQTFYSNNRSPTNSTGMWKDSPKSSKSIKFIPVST
Procedure, shortened: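 CHO K1 cells stably expressing human V1a receptor with aequorin photoprotein, loaded overnight with coelenterazine. Compounds preincubated 10 min at various concentrations, then challenged with [Arg^8]-vasopressin at EC50 concentration. Calcium-driven luminescence read immediately; IC50 values derived.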

human V2 receptor = biological target: T1, human V2 receptor (Homo sapiens, UniProt P30518); experiment: Cellular in vitro assay for determining vasopressin receptor activity, V2 receptor cell line (CRE-luciferase); format: cell-based; conditions: CHO cell line transfected with the human V2 receptor; agonist [Arg8]-vasopressin at EC50 concentration; read-out: IC50 hV2
T1 construct: expressed in transfected cells; host or cells: CHO K1 (ATCC) expressing firefly luciferase under a CRE-responsive promoter
T1 sequence (P30518 whole entry): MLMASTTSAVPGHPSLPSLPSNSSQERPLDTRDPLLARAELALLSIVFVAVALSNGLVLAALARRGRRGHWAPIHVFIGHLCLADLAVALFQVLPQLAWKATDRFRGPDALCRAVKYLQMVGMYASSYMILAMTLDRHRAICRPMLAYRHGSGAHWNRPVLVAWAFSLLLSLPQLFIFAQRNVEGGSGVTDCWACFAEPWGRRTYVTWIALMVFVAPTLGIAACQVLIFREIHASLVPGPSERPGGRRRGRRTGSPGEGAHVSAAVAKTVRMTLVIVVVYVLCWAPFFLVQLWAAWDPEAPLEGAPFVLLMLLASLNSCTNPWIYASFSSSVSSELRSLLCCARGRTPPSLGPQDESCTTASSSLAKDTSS

Row | Compound | IC50 (human V1a receptor) [nM] | ratio IC50 hV2/hV1a (human V1a receptor) | IC50 (human V2 receptor) [nM]
1 | O=c1n(Cc2nc(N3CCC(O)(C(F)(F)F)CC3)n(-c3ccccc3Cl)n2)nc(-c2ccc(Cl)cc2)n1C[C@H](O)C(F)(F)F [Example 28, 5-(4-Chlorophenyl)-2-({1-(2-chlorophenyl)-5-[4-hydroxy-4-(trifluoromethyl)piperidin-1-yl]-1H-1,2,4-triazol-3-yl}methyl)-4-[(2S)-3,3,3-trifluoro-2-hydroxypropyl]-2,4-dihydro-3H-1,2,4-triazol-3-one] | 0.66 | 15.3 | 10
2 | CC1(C)CN(c2nc(Cn3nc(-c4ccc(Cl)cc4)n(C[C@H](O)C(F)(F)F)c3=O)nn2-c2ncccc2Cl)CCN1 [Example 122, 5-(4-Chlorophenyl)-2-{[1-(3-chloropyridin-2-yl)-5-(3,3-dimethylpiperazin-1-yl)-1H-1,2,4-triazol-3-yl]methyl}-4-[(2S)-3,3,3-trifluoro-2-hydroxypropyl]-2,4-dihydro-3H-1,2,4-triazol-3-one] | 0.97 | 1606.2 | 1550
3 | CC(C)(C)OC(=O)N1CCCC(O)(CNc2nc(Cn3nc(-c4ccc(Cl)cc4)n(C[C@H](O)C(F)(F)F)c3=O)nn2-c2ccccc2Cl)CC1 (mixture of isomers) [Example 19, tert-Butyl 4-({[1-(2-chlorophenyl)-3-({3-(4-chlorophenyl)-5-oxo-4-[(2S)-3,3,3-trifluoro-2-hydroxypropyl]-4,5-dihydro-1H-1,2,4-triazol-1-yl}methyl)-1H-1,2,4-triazol-5-yl]amino}methyl)-4-hydroxyazepane-1-carboxylate] | 2.55 | 14.9 | 38
4 | CC(C)(O)CNc1nc(Cn2nc(-c3ccc(Cl)cc3)n(C[C@H](O)C(F)(F)F)c2=O)nn1CCC(F)(F)F [Example 110, 5-(4-Chlorophenyl)-2-({5-[(2-hydroxy-2-methylpropyl)amino]-1-(3,3,3-trifluoropropyl)-1H-1,2,4-triazol-3-yl}methyl)-4-[(2S)-3,3,3-trifluoro-2-hydroxypropyl]-2,4-dihydro-3H-1,2,4-triazol-3-one] | 1.4 | 121.4 | 170
5 | CCOC(=O)CNc1nc(Cn2nc(-c3ccc(Cl)cc3)n(C[C@H](O)C(F)(F)F)c2=O)nn1-c1cccc(Cl)c1 [Example 115, Ethyl N-[1-(3-chlorophenyl)-3-({3-(4-chlorophenyl)-5-oxo-4-[(2S)-3,3,3-trifluoro-2-hydroxypropyl]-4,5-dihydro-1H-1,2,4-triazol-1-yl}methyl)-1H-1,2,4-triazol-5-yl]glycinate] | 5.86 | 0.4 | 2.07
6 | CC1(C)CN(c2nc(Cn3nc(-c4ccc(Cl)cc4)n(C[C@H](O)C(F)(F)F)c3=O)nn2CCC(F)(F)F)CCN1 [Example 114, 5-(4-Chlorophenyl)-2-{[5-(3,3-dimethylpiperazin-1-yl)-1-(3,3,3-trifluoropropyl)-1H-1,2,4-triazol-3-yl]methyl}-4-[(2S)-3,3,3-trifluoro-2-hydroxypropyl]-2,4-dihydro-3H-1,2,4-triazol-3-one] | 10.3 |  | 1800
7 | O=c1n(Cc2nc(N3CCNC(C(F)(F)F)C3)n(CCC(F)(F)F)n2)nc(-c2ccc(Cl)cc2)n1C[C@H](O)C(F)(F)F (single isomer, unassigned) [Example 107] | 43.5 | 18.1 | 785
8 | CN(CCO)c1nc(Cn2nc(-c3ccc(Cl)cc3)n(C[C@H](O)C(F)(F)F)c2=O)nn1-c1ccccc1Cl [Example 84, 5-(4-Chlorophenyl)-2-({1-(2-chlorophenyl)-5-[(2-hydroxyethyl)(methyl)amino]-1H-1,2,4-triazol-3-yl}methyl)-4-[(2S)-3,3,3-trifluoro-2-hydroxypropyl]-2,4-dihydro-3H-1,2,4-triazol-3-one] | 0.83 | 14.4 | 12

Compounds with a lower IC50 (human V1a receptor), results first:

Row | IC50 (human V1a receptor) [nM] | ratio IC50 hV2/hV1a (human V1a receptor) | IC50 (human V2 receptor) [nM] | Compound
9 | 0.35 | 6.5 | 2.25 | O=c1n(Cc2nc(N3CCC(O)(C(F)(F)F)C3)n(-c3ccccc3Cl)n2)nc(-c2ccc(Cl)cc2)n1C[C@H](O)C(F)(F)F (mixture of isomers) [Example 13, 5-(4-Chlorophenyl)-2-({1-(2-chlorophenyl)-5-[3-hydroxy-3-(trifluoromethyl)pyrrolidin-1-yl]-1H-1,2,4-triazol-3-yl}methyl)-4-[(2S)-3,3,3-trifluoro-2-hydroxypropyl]-2,4-dihydro-3H-1,2,4-triazol-3-one]
10 | 0.44 | 3.1 | 1.33 | O=c1n(Cc2nc(N3CCC(F)(F)C3)n(-c3ccccc3Cl)n2)nc(-c2ccc(Cl)cc2)n1C[C@H](O)C(F)(F)F [Example 37, 5-(4-Chlorophenyl)-2-{[1-(2-chlorophenyl)-5-(3,3-difluoropyrrolidin-1-yl)-1H-1,2,4-triazol-3-yl]methyl}-4-[(2S)-3,3,3-trifluoro-2-hydroxypropyl]-2,4-dihydro-3H-1,2,4-triazol-3-one]
11 | 0.45 | 30.3 | 13.5 | O=c1n(Cc2nc(N3CCNC(C(F)(F)F)C3)n(-c3ccccc3Cl)n2)nc(-c2ccc(Cl)cc2)n1C[C@H](O)C(F)(F)F (single isomer, unassigned) [Example 68]
12 | 0.58 | 31.0 | 18 | CC1(C)CN(c2nc(Cn3nc(-c4ccc(Cl)cc4)n(C[C@H](O)C(F)(F)F)c3=O)nn2-c2ccccc2Cl)CCO1 [Example 39, 5-(4-Chlorophenyl)-2-{[1-(2-chlorophenyl)-5-(2,2-dimethylmorpholin-4-yl)-1H-1,2,4-triazol-3-yl]methyl}-4-[(2S)-3,3,3-trifluoro-2-hydroxypropyl]-2,4-dihydro-3H-1,2,4-triazol-3-one]
